Measurements: US8999974B2, “Acyl piperazine derivatives as TTX-S blockers” (Raqualia Pharma Inc., priority 2010, dated 2015)

Key:
human Nav1.7 = molecular target: T1, human Nav1.7 (Homo sapiens, UniProt Q15858); assay: FRET assay (EFS, FDSS) on CHO cells expressing human NaV1.7 channels; format: cell-based; conditions: FRET assay, CHO cells expressing human NaV1.7; read-out: IC50 against Nav1.7
T1 construct: expressed in transfected cells; host or cells: CHO
Method: This screen was used to determine the effects of compounds on human NaV1.3, human Nav1.7, and human Nav1.5 channels, utilising electrical field stimulation (EFS) system in 96-well plate format on FDSS (Hamamatsu Photonics) platform. The change of membrane potential was monitored with FRET dye pair, oxonol (DiSBAC2(3)) and coumarin (CC2-DMPE).
CHO cells expressing human NaV1.7 channels were grown in T225 flasks, in a 5% CO2 humidified incubator to about 80% confluence. Media composition consisted of HAM/F12 with Glutamax I, 10% FCS, 100 units/ml Penicillin and 100 microgram/ml Hygromycin.
Protocol: • Seeded each cell lines (1×10^5 cells/well) into poly-D-lysine coated 96-well plates prior to experimentation. • Incubated at 37° C. in 5% CO2 for 24 hours. • Washed each well with assay buffer (140 mM NaCl, 4.5 mM KCl, 10 mM D-Glucose, 2 mM CaCl2, 1 mM MgCl2, 10 mM HEPES, pH 7.4 adjusted with NaOH) twice. • Added 1st loading solution containing 10 microM CC2-DMPE and 0.06% Pluronic F-127 in assay buffer. • Incubated the plate at room temperature in dark for 1 hour. • Removed 1st loading solution and added 2nd loading solution containing 15 microM DiSBAC2(3), 0.555 mM VABSC-1 and 0.004% Pluronic F-127 in assay buffer. • Placed the plate under the dark at room temperature for 25 minutes. • Added compound solutions into the assay plate. • Set the assay plate in FDSS and placed an EFS device on the plate. • Measured EFS-induced fluorescent response by FDSS.
The data were analyzed and reported as normalized ratios of intensities measured at […]. The process of calculating these ratios was performed as follows:
[formula] This analysis was performed using a computerized specific program designed for FDSS generated data. Fluorescence ratio values were plotted using XLfit to determine an IC50 value for each compound.

human NaV1.3 = molecular target: T2, human NaV1.3 (Homo sapiens, UniProt Q9NY46); assay: FRET assay (EFS, FDSS) on HEK293 cells expressing human NaV1.3 channels; format: cell-based; conditions: FRET assay, HEK293 cells expressing human NaV1.3; read-out: IC50 against Nav1.3
T2 construct: expressed in transfected cells; host or cells: HEK293
In short: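 Membrane potential in HEK293 cells stably expressing human NaV1.3, read by FRET (CC2-DMPE 10 µM / DiSBAC2(3) 15 µM with 0.555 mM VABSC-1) after electrical field stimulation, in HEPES-buffered saline pH 7.4. Compounds added after dye loading at room temperature. IC50 from normalized 440 nm fluorescence ratios.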

T1 sequence (Q15858 whole entry): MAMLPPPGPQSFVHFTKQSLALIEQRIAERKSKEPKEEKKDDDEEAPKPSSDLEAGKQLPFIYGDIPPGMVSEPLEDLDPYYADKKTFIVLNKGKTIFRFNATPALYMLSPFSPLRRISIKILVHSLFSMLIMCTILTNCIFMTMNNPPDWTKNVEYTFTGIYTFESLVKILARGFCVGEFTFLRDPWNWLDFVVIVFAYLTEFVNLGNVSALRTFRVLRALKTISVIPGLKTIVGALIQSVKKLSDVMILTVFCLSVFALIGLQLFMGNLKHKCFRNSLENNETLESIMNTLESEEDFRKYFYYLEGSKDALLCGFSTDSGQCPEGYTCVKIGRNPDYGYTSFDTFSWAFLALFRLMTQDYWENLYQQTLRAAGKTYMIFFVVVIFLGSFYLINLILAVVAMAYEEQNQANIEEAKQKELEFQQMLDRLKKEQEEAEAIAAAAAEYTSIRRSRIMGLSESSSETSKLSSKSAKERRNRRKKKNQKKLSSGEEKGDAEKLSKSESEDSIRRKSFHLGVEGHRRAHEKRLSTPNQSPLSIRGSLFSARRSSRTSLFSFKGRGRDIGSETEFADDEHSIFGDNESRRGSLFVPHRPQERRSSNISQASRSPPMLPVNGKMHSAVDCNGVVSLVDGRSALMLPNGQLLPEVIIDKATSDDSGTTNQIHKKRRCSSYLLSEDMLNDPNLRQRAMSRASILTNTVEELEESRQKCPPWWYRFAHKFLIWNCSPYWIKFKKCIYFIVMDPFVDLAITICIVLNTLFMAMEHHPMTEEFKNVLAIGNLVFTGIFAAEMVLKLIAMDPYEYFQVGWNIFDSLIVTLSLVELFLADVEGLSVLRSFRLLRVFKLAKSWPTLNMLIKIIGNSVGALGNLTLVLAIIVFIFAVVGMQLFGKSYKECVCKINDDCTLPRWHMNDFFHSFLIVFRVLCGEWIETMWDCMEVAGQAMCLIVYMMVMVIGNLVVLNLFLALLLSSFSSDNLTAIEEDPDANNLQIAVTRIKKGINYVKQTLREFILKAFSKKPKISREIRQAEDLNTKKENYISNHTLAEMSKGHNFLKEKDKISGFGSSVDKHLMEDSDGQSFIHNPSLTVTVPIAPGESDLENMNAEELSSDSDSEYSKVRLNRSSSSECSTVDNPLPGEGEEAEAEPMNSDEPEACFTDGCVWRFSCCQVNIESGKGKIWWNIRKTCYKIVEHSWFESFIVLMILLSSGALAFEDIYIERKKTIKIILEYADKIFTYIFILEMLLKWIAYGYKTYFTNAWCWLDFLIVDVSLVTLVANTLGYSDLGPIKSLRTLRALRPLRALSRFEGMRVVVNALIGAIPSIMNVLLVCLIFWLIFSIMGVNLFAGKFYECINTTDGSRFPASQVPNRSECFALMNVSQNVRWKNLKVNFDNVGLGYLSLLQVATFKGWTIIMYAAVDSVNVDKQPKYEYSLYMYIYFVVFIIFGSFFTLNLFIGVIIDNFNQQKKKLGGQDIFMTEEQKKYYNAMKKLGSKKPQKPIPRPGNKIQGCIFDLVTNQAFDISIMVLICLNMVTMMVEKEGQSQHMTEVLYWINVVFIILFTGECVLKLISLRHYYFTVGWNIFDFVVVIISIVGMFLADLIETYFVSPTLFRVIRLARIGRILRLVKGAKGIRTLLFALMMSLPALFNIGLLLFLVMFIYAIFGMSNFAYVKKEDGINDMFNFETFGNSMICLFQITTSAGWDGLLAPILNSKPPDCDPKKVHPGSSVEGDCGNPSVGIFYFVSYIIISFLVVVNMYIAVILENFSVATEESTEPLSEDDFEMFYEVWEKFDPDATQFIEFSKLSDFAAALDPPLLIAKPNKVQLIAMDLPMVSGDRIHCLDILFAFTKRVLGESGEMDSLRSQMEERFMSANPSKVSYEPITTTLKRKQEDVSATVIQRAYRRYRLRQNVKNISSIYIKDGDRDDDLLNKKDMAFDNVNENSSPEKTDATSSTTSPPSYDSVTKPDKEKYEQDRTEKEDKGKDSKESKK
T2 sequence (Q9NY46 whole entry): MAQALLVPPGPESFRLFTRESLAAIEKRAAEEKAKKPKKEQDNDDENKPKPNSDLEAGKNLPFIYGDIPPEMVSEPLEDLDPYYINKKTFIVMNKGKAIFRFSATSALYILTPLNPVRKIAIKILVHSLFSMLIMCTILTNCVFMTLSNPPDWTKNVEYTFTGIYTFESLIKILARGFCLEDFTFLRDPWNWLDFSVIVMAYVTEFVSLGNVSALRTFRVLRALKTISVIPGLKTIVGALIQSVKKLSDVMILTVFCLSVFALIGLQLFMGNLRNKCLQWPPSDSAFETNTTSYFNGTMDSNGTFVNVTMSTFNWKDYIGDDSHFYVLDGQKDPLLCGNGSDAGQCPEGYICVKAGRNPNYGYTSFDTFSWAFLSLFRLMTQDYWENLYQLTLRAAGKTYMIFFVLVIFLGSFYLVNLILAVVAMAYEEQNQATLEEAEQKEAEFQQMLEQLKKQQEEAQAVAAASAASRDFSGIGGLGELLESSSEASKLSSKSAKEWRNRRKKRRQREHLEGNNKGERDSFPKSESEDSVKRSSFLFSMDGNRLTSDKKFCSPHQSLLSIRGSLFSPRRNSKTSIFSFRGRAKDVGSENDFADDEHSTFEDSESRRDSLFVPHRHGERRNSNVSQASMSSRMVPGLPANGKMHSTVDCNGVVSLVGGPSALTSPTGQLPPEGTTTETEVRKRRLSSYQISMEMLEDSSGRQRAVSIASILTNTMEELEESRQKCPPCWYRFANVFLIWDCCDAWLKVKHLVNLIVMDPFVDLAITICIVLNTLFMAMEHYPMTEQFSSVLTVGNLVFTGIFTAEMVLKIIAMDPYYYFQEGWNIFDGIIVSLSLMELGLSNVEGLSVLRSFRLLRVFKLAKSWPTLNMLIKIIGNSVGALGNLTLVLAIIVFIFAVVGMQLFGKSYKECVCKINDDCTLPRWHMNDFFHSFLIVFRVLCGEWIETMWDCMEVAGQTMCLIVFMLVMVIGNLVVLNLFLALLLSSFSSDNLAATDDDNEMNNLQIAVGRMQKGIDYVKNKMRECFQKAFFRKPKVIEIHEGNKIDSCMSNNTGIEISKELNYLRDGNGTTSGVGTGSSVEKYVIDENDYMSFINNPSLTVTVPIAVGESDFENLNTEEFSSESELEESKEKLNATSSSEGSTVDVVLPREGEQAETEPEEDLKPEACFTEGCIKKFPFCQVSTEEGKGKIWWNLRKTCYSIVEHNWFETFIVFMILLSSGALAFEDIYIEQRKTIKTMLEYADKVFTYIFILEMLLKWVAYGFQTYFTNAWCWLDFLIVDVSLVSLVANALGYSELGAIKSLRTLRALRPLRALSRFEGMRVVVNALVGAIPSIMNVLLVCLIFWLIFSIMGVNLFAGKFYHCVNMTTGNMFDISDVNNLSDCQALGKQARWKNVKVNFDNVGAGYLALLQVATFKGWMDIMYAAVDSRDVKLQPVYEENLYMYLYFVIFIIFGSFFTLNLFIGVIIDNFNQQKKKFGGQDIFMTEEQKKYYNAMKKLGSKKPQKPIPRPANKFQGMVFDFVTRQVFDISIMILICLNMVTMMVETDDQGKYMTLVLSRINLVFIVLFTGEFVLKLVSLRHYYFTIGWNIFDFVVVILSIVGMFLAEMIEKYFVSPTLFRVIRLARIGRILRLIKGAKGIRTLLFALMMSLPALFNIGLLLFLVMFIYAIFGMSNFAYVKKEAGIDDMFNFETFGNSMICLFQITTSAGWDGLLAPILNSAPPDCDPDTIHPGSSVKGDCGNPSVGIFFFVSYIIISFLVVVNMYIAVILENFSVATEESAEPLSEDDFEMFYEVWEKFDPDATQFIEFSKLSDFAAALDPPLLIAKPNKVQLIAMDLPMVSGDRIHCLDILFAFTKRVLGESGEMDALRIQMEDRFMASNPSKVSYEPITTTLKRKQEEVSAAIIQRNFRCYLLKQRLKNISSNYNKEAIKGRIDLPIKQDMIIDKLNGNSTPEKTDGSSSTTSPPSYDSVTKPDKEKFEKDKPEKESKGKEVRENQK

Structure (SMILES): CC(C)COc1cc(N2CCN(C(=O)COc3cccc(OC(F)(F)F)c3)CC2)ncn1 [Example 145, 1-(4-(6-isobutoxypyrimidin-4-yl)piperazin-1-yl)-2-(3-(trifluoromethoxy)phenoxy)ethanone]
- IC50 (human Nav1.7): < 3 µM
- IC50 (human NaV1.3): < 3 µM

Structure (SMILES): O=C(c1csc(-c2ccccn2)n1)N1CCN(c2cc(OCC(F)(F)F)ncn2)CC1 [Example 244, (2-(pyridin-2-yl)thiazol-4-yl)(4-(6-(2,2,2-trifluoroethoxy)pyrimidin-4-yl)piperazin-1-yl)methanone]
- IC50 (human Nav1.7): < 3 µM
- IC50 (human NaV1.3): < 3 µM

Structure (SMILES): CC(C)COc1cc(N2CCN(C(=O)COc3cccc4c3ccn4C)CC2)ncn1 [Example 141, 1-(4-(6-isobutoxypyrimidin-4-yl)piperazin-1-yl)-2-((1-methyl-1H-indol-4-yl)oxy)ethanone]
- IC50 (human Nav1.7): < 3 µM
- IC50 (human NaV1.3): < 3 µM

Structure (SMILES): CC(C)COc1cc(N2CCN(C(=O)c3cccc(OC(F)(F)F)c3)CC2)ncn1 [Example 15, (4-(6-isobutoxypyrimidin-4-yl)piperazin-1-yl)(3-(trifluoromethoxy)phenyl)methanone]
- IC50 (human Nav1.7): < 3 µM
- IC50 (human NaV1.3): < 3 µM

Structure (SMILES): Cc1nc(-c2ccccc2)oc1C(=O)N1CCN(c2cc(OCC(C)C)ncn2)CC1 [Example 208, (4-(6-isobutoxypyrimidin-4-yl)piperazin-1-yl)(4-methyl-2-phenyloxazol-5-yl)methanone]
- IC50 (human Nav1.7): < 3 µM
- IC50 (human NaV1.3): < 3 µM

Structure (SMILES): CC(C)COc1cc(N2CCN(C(=O)c3cc(-c4ccccc4)n(C)n3)CC2)ncn1 [Example 133, (4-(6-isobutoxypyrimidin-4-yl)piperazin-1-yl)(1-methyl-5-phenyl-1H-pyrazol-3-yl)methanone]
- IC50 (human Nav1.7): < 3 µM
- IC50 (human NaV1.3): < 3 µM

Structure (SMILES): CC(C)COc1cc(N2CCN(C(=O)CNC(=O)c3ccc(OCC(F)(F)F)nc3)CC2)ncn1 [Example 74, N-(2-(4-(6-isobutoxypyrimidin-4-yl)piperazin-1-yl)-2-oxoethyl)-6-(2,2,2-trifluoroethoxy)nicotinamide]
- IC50 (human Nav1.7): < 3 µM
- IC50 (human NaV1.3): < 3 µM

Structure (SMILES): CC(C)COc1cc(N2CCN(C(=O)CCn3ccc4ccccc43)CC2)ncn1 [Example 59, 3-(1H-indol-1-yl)-1-(4-(6-isobutoxypyrimidin-4-yl)piperazin-1-yl)propan-1-one]
- IC50 (human Nav1.7): < 3 µM
- IC50 (human NaV1.3): < 3 µM

Structure (SMILES): COc1cccc(OCC(=O)N2CCN(c3cc(OCC(C)C)ncn3)CC2)c1 [Example 70, 1-(4-(6-isobutoxypyrimidin-4-yl)piperazin-1-yl)-2-(3-methoxyphenoxy)ethanone]
- IC50 (human Nav1.7): < 3 µM
- IC50 (human NaV1.3): < 3 µM

Structure (SMILES): CC(C)COc1cc(N2CCN(C(=O)CCOc3ccccc3)CC2)ncn1 [Example 131, 1-(4-(6-isobutoxypyrimidin-4-yl)piperazin-1-yl)-3-phenoxypropan-1-one]
- IC50 (human Nav1.7): < 3 µM
- IC50 (human NaV1.3): < 3 µM

Structure (SMILES): CC(C)COc1cc(N2CCN(C(=O)[C@@H](N)c3ccccc3)CC2)ncn1 [Example 27, (S)-2-amino-1-(4-(6-isobutoxypyrimidin-4-yl)piperazin-1-yl)-2-phenylethanone]
- IC50 (human Nav1.7): < 3 µM

Structure (SMILES): Cn1nc(C(=O)N2CCN(c3cc(OCC(F)(F)F)ncn3)CC2)c2cc(F)ccc21 [Example 212, (5-fluoro-1-methyl-1H-indazol-3-yl)(4-(6-(2,2,2-trifluoroethoxy)pyrimidin-4-yl)piperazin-1-yl)methanone]
- IC50 (human Nav1.7): < 3 µM
- IC50 (human NaV1.3): < 3 µM

Structure (SMILES): O=C(Cc1c[nH]c2ccc(F)cc12)N1CCN(c2cc(OCC(F)(F)F)ncn2)CC1 [Example 110, 2-(5-fluoro-1H-indol-3-yl)-1-(4-(6-(2,2,2-trifluoroethoxy)pyrimidin-4-yl)piperazin-1-yl)ethanone]
- IC50 (human Nav1.7): < 3 µM

Structure (SMILES): CCn1nc(C(=O)N2CCN(c3cc(OCC(F)(F)F)ncn3)CC2)cc1C(F)(F)F [Example 229, (1-ethyl-5-(trifluoromethyl)-1H-pyrazol-3-yl)(4-(6-(2,2,2-trifluoroethoxy)pyrimidin-4-yl)piperazin-1-yl)methanone]
- IC50 (human Nav1.7): < 3 µM
- IC50 (human NaV1.3): < 3 µM

Structure (SMILES): CC(C)COc1cc(N2CCN(C(=O)COCc3ccc(F)cc3)CC2)ncn1 [Example 168, 2-((4-fluorobenzyl)oxy)-1-(4-(6-isobutoxypyrimidin-4-yl)piperazin-1-yl)ethanone]
- IC50 (human Nav1.7): < 3 µM
- IC50 (human NaV1.3): < 3 µM

Structure (SMILES): CC(C)COc1cc(N2CCN(C(=O)COc3ccccc3C(F)(F)F)CC2)ncn1 [Example 143, 1-(4-(6-isobutoxypyrimidin-4-yl)piperazin-1-yl)-2-(2-(trifluoromethyl)phenoxy)ethanone]
- IC50 (human Nav1.7): < 3 µM

Structure (SMILES): CC(C)COc1cc(N2CCN(C(=O)COc3ccc4ccccc4n3)CC2)ncn1 [Example 160, 1-(4-(6-isobutoxypyrimidin-4-yl)piperazin-1-yl)-2-(quinolin-2-yloxy)ethanone]
- IC50 (human Nav1.7): < 3 µM

Structure (SMILES): O=C(c1ccc2cccc(O)c2n1)N1CCN(c2cc(OCC(F)(F)F)ncn2)CC1 [Example 65, (8-hydroxyquinolin-2-yl)(4-(6-(2,2,2-trifluoroethoxy)pyrimidin-4-yl)piperazin-1-yl)methanone]
- IC50 (human Nav1.7): < 3 µM

Structure (SMILES): CC(C)COc1cc(N2CCN(C(=O)[C@@H](NC(=O)OC(C)(C)C)c3ccccc3)CC2)ncn1 [Example 10, (S)-tert-butyl (2-(4-(6-isobutoxypyrimidin-4-yl)piperazin-1-yl)-2-oxo-1-phenylethyl)carbamate]
- IC50 (human Nav1.7): < 3 µM

Structure (SMILES): CC(C)COc1cc(N2CCN(C(=O)Cn3ccc4ccccc4c3=O)CC2)ncn1 [Example 236, 2-(2-(4-(6-isobutoxypyrimidin-4-yl)piperazin-1-yl)-2-oxoethyl)isoquinolin-1(2H)-one]
- IC50 (human Nav1.7): < 3 µM

Structure (SMILES): CC(C)COc1cc(N2CCN(C(=O)c3ccc(Cl)c(F)c3)CC2)ncn1 [Example 39, (4-chloro-3-fluorophenyl)(4-(6-isobutoxypyrimidin-4-yl)piperazin-1-yl)methanone]
- IC50 (human Nav1.7): < 3 µM

Structure (SMILES): CC(C)COc1cc(N2CCN(C(=O)c3ccc4cccc(O)c4n3)CC2)ncn1 [Example 32, (8-hydroxyquinolin-2-yl)(4-(6-isobutoxypyrimidin-4-yl)piperazin-1-yl)methanone]
- IC50 (human Nav1.7): < 3 µM

Structure (SMILES): Cc1ccc(C(=O)N2CCN(c3cc(OCC(F)(F)F)ncn3)CC2)cc1F [Example 8, 3-(fluoro-4-methylphenyl)(4-(6-(2,2,2-trifluoroethoxy)pyrimidin-4-yl)piperazin-1-yl)methanone]
- IC50 (human Nav1.7): < 3 µM

Structure (SMILES): CC(C)COc1cc(N2CCN(C(=O)CNC(=O)c3cccc4[nH]ccc34)CC2)ncn1 [Example 75, N-(2-(4-(6-isobutoxypyrimidin-4-yl)piperazin-1-yl)-2-oxoethyl)-1H-indole-4-carboxamide]
- IC50 (human Nav1.7): < 3 µM

Structure (SMILES): CC(C)COc1cc(N2CCN(C(=O)CNC(=O)c3nn(C)c4ccccc34)CC2)ncn1 [Example 76, N-(2-(4-(6-isobutoxypyrimidin-4-yl)piperazin-1-yl)-2-oxoethyl)-1-methyl-1H-indazole-3-carboxamide]
- IC50 (human Nav1.7): < 3 µM

Structure (SMILES): CC(C)COc1cc(N2CCN(C(=O)COc3cccc4[nH]ccc34)CC2)ncn1 [Example 137, 2-((1H-indol-4-yl)oxy)-1-(4-(6-isobutoxypyrimidin-4-yl)piperazin-1-yl)ethanone]
- IC50 (human Nav1.7): < 3 µM

Structure (SMILES): CC(C)COc1cc(N2CCN(C(=O)c3cc4ccccc4n3C)CC2)ncn1 [Example 43, (4-(6-isobutoxypyrimidin-4-yl)piperazin-1-yl)(1-methyl-1H-indol-2-yl)methanone]
- IC50 (human Nav1.7): < 3 µM

Structure (SMILES): CC(C)COc1cc(N2CCN(C(=O)Cc3c[nH]c4ccc(F)cc34)CC2)ncn1 [Example 60, 2-(5-fluoro-1H-indol-3-yl)-1-(4-(6-isobutoxypyrimidin-4-yl)piperazin-1-yl)ethanone]
- IC50 (human Nav1.7): < 3 µM

Structure (SMILES): CC(C)COc1cc(N2CCN(C(=O)Cc3c[nH]c4ccccc34)CC2)ncn1 [Example 102, 2-(1H-indol-3-yl)-1-(4-(6-isobutoxypyrimidin-4-yl)piperazin-1-yl)ethanone]
- IC50 (human Nav1.7): < 3 µM

Structure (SMILES): CC(C)COc1cc(N2CCN(C(=O)CNC3CCCCC3)CC2)ncn1 [Example 100, 2-(cyclohexylamino)-1-(4-(6-isobutoxypyrimidin-4-yl)piperazin-1-yl)ethanone]
- IC50 (human Nav1.7): < 3 µM

Structure (SMILES): O=C(c1cncn1-c1ccccc1C(F)(F)F)N1CCN(c2cc(OCC(F)(F)F)ncn2)CC1 [Example 243, (4-(6-(2,2,2-trifluoroethoxy)pyrimidin-4-yl)piperazin-1-yl)(1-(2-(trifluoromethyl)phenyl)-1H-imidazol-5-yl)methanone]
- IC50 (human Nav1.7): < 3 µM
